This note sets out measurements from patent US9079870B2, “Thiol mediated/activated prodrugs of sulfur dioxide (SO2) having anti-bacterial activity” (priority 2012, dated 2015).

Data set [1] has as its system Mycobacterium tuberculosis H37Rv strain. Put plainly: Antimycobacterial activity assay (MIC, 7H11 agar). The format is cell-based. The note with it: for inhibition of growth of Mtb at 100 μg mL-1: tested at 100 μg mL-1.
The nature of data set [2]: Pararosaniline-based colorimetric assay for sulfur dioxide. The format is physicochemical. The settings on record: detected with pararosaniline-based colorimetric assay; 10 equiv cysteine, pH 7.4.
Data set [3] can be described thus: Cysteine-activated sulfur dioxide release, ion chromatography analysis of sulfite. The note with it: for SO2 yield, 5 min: 5 min after treatment of compound (100 1M) with 10 equiv of cysteine in pH 7.4 phosphate buffer; for % SO2 (30 min): 30 min after commencement of the reaction with thiol, per mole of compound.
The mark [4] stands for this setting: Mycobacterium tuberculosis, Table 3, Mtb H37Rv, read-out: MIC.
The mark [5] stands for this setting: Mycobacterium tuberculosis, H37RV, Table 3, Mtb H37Rv.
The mark [6] stands for this setting: Mycobacterium tuberculosis, H37RV, Table 3, inhibit 99% of bacterial growth, Mtb H37Rv.
[7] abbreviates: Mycobacterium tuberculosis, H37RV, Table 2b, Mtb H37Rv.
Where [8] appears, read: Mycobacterium tuberculosis, H37RV, Table 2b, inhibit 99% of bacterial growth, Mtb H37Rv.
The mark [9] stands for this setting: 30 min after treatment of compound (100 1M) with 10 equiv of cysteine in pH 7.4 phosphate buffer.
[10] abbreviates: Table 2b, Mtb H37Rv, read-out: MIC.
Setting [11] is: Mycobacterium tuberculosis, H37RV, 672 h, Table 3, inhibit 99% of bacterial growth, Mtb H37Rv, read-out: MIC.
The mark [12] stands for this setting: Table 3, 30 min after treatment of compound (100 μM) with 10 equiv of cysteine in pH 7.4 phosphate buffer.
[13] abbreviates: Mycobacterium tuberculosis, Table 2b, Mtb H37Rv, read-out: MIC.
The mark [14] stands for this setting: Mycobacterium tuberculosis, Table 2b, inhibit 99% of bacterial growth, Mtb H37Rv, read-out: MIC.

The structures appear in SMILES notation. Like-named read-outs stand apart in the source and are kept apart here.

The MIC is the least concentration at which growth counts as inhibited.

For the molecule `NCc1ccccc1` [BnNH2, Benzylamine, reference compound], the minimum inhibitory concentration (MIC) is > 250 µM in data set [1] (setting [4]) and > 100 µg/mL in data set [1] (Mycobacterium tuberculosis, Table 3, inhibit 99% of bacterial growth, Mtb H37Rv, read-out: MIC). Moreover, in data set [1], the “inhibition of growth of Mtb at 100 μg mL-1” value (from here on “inhibition of growth of Mtb”) is on record as “did not show a significant inhibition of growth of Mtb”. Besides, in data set [2], the SO2 source entry is on record as “no”.

Take `CNCc1ccccc1` [BnNHMe, N-methylbenzylamine, reference compound]: the MIC in data set [1] (setting [5]) is > 250 µM; in data set [1] (setting [6]), > 100 µg/mL. Also, in data set [1], the “inhibition of growth of Mtb” value is given as “a similar observation”. Further, the SO2 source entry in data set [2] was “no”.

`O=[N+]([O-])c1ccc(S(=O)(=O)NCc2ccc(Cl)cc2)c([N+](=O)[O-])c1` [Compound 3, N-(4-chlorobenzyl)2,4-dinitrophenylsulfonamide]: the MIC in data set [1] (setting [7]) was determined as 1.07 µM; in data set [1] (setting [8]), 0.4 µg/mL. Besides, the “SO2 yield, 5 min” value in data set [3] is 77 µM. The “SO2 yield, 30 min” value in data set [3] (setting [9]) came out at 96 µM.

For `O=[N+]([O-])c1ccc(S(=O)(=O)NCc2ccc(C(F)(F)F)cc2)c([N+](=O)[O-])c1` [Compound 4, N-(4-trifluoromethylbenzyl) 2,4-dinitrophenylsulfonamide], the “MIC” value in data set [1] is 0.4 µg/mL; in data set [1] (setting [10]), 0.98 µM. The “SO2 yield, 5 min” value in data set [3] amounted to 79 µM. Further, the “SO2 yield, 30 min” value in data set [3] (setting [9]) amounted to 75 µM.

Turning to `O=[N+]([O-])c1ccc(S(=O)(=O)NCc2ccccc2C(F)(F)F)c([N+](=O)[O-])c1` [Compound 5, N-(2-trifluoromethylbenzyl) 2,4-dinitrophenylsulfonamide], the “MIC” value in data set [1] amounted to 1.56 µg/mL; in data set [1] (setting [10]) it was 3.84 µM. Also, the “SO2 yield, 5 min” value in data set [3] was 81 µM. Also, the “SO2 yield, 30 min” value in data set [3] (setting [9]) amounted to 84 µM.

For the molecule `C[C@H](NS(=O)(=O)c1ccc([N+](=O)[O-])cc1[N+](=O)[O-])c1ccccc1` [Compound 12, (S) N-(1-phenylethyl)-2,4-dinitrobenzenesulfonamide], the MIC in data set [1] (setting [7]) was 4.44 µM; in data set [1] (setting [8]), 1.56 µg/mL. For the same molecule, in data set [3], the “SO2 yield, 5 min” value was found to be 80 µM. The “SO2 yield, 30 min” value in data set [3] (setting [9]) was determined as 97 µM.

`C[C@@H](NS(=O)(=O)c1ccc([N+](=O)[O-])cc1[N+](=O)[O-])c1ccccc1` [Compound 13, (R) N-(1-phenylethyl)-2,4-dinitrobenzenesulfonamide]: the MIC stood at 4.44 µM in data set [1] (setting [7]) and 1.56 µg/mL in data set [1] (setting [8]). Besides, the “SO2 yield, 5 min” value in data set [3] came out at 78 µM. Besides, the “SO2 yield, 30 min” value in data set [3] (setting [9]) is 94 µM.

For the molecule `O=[N+]([O-])c1ccc(S(=O)(=O)NCCc2ccccc2)c([N+](=O)[O-])c1` [Compound 14, N-(2-phenylethyl) 2,4-dinitrophenylsulfonamide], the “MIC” value worked out at 0.4 µg/mL in data set [1] and 1.13 µM in data set [1] (setting [10]). Besides, in data set [3], the “SO2 yield, 5 min” value stood at 76 µM. Also, the “SO2 yield, 30 min” value in data set [3] (setting [9]) was 100 µM.

For the molecule `O=[N+]([O-])c1ccc(S(=O)(=O)N(Cc2ccccc2)c2ccccc2)c([N+](=O)[O-])c1` [Compound 17, (N-benzyl, N-phenyl) 2,4-dinitrophenylsulfonamide], the MIC was determined as 4.44 µM in data set [1] (setting [10]) and 1.56 µg/mL in data set [1] (Table 2b, inhibit 99% of bacterial growth, Mtb H37Rv). Further, in data set [3], the “SO2 yield, 5 min” value stood at 44 µM. For the same molecule, the “SO2 yield, 30 min” value in data set [3] (setting [9]) amounted to 94 µM.

For `CN(c1ccccc1)S(=O)(=O)c1ccc([N+](=O)[O-])cc1[N+](=O)[O-]` [Compound 18, (N-methyl, N-phenyl) 2,4-dinitrophenylsulfonamide], the entries for the “MIC” value in data set [1] and in data set [1] (setting [10]) were 0.78 µg/mL and 2.31 µM, respectively. Besides, in data set [3], the “SO2 yield, 5 min” value is 89 µM. Besides, in data set [3] (setting [9]), the “SO2 yield, 30 min” value is 94 µM.

Consider `CN(CCc1ccccc1)S(=O)(=O)c1ccc([N+](=O)[O-])cc1[N+](=O)[O-]` [Compound 19, N-methyl, N-(2-phenylethyl) 2,4-dinitrophenylsulfonamide], for which the “MIC” value in data set [1] was determined as 0.78 µg/mL; in data set [1] (setting [10]), 2.13 µM. Moreover, the “SO2 yield, 5 min” value in data set [3] was determined as 79 µM. Moreover, the “SO2 yield, 30 min” value in data set [3] (setting [9]) was 84 µM.

Regarding `O=[N+]([O-])c1ccc(S(=O)(=O)N(CCc2ccccc2)Cc2ccccc2)c([N+](=O)[O-])c1` [Compound 20, N-benzyl, N-(2-phenylethyl) 2,4-dinitrophenylsulfonamide], the “MIC” value in data set [1] was found to be 3.13 µg/mL; in data set [1] (setting [10]), 7.09 µM. Moreover, the “SO2 yield, 5 min” value in data set [3] stood at 37 µM. Further, in data set [3] (setting [9]), the “SO2 yield, 30 min” value is 75 µM.

Consider `COC(=O)C(C)NS(=O)(=O)c1ccc([N+](=O)[O-])cc1[N+](=O)[O-]` (stereo not drawn) [Compound 21, Methyl 2-{[(2,4-dinitrophenyl)sulfonyl]amino}propanoate], for which the MIC in data set [1] (setting [11]) is ≤ 25 µg/mL; in data set [1] (setting [5]), 18.7 µM; in data set [1] (setting [6]) it was 6.25 µg/mL. Also, in data set [2], the SO2 source result is reported as “yes”. Moreover, in data set [3] (setting [12]), the “SO2 yield, 30 min” value was found to be 93 µM.

As to `COC(=O)C1CCCN1S(=O)(=O)c1ccc([N+](=O)[O-])cc1[N+](=O)[O-]` (stereo not drawn) [Compound 22, Methyl 1[(2,4-dinitrophenyl)sulfonyl]pyrrolidine-2-carboxylate], the minimum inhibitory concentration (MIC) in data set [1] (setting [11]) was ≤ 25 µg/mL; in data set [1] (setting [5]) it was 35 µM; in data set [1] (setting [6]) it was 12.5 µg/mL. Also, the SO2 source entry in data set [2] is reported as “yes”. Also, the “SO2 yield, 30 min” value in data set [3] (setting [12]) was 83 µM.

With `COc1ccccc1N(CCCN(Cc1ccccc1)S(=O)(=O)c1ccc([N+](=O)[O-])cc1[N+](=O)[O-])S(=O)(=O)c1ccc([N+](=O)[O-])cc1[N+](=O)[O-]` [Compound 35, N-benzyl-N-(3-(N-(2-methoxyphenyl)-2,4-dinitrophenylsulfonamido)propyl)-2,4-dinitrobenzenesulfonamide], the “% SO2 (30 min)” value in data set [3] was 161%.

On to `O=[N+]([O-])c1ccc(S(=O)(=O)N(CCCN(Cc2ccccc2)S(=O)(=O)c2ccccc2[N+](=O)[O-])Cc2ccccc2)c([N+](=O)[O-])c1` [Compound 40, N-benzyl-N-(3-(N-benzyl-2-nitrophenylsulfonamido)propyl)-2,4-dinitrobenzenesulfon-amide], for which the “% SO2 (30 min)” value in data set [3] is given as 88%.

As for `O=[N+]([O-])c1cccc(S(=O)(=O)N(CCCN(Cc2ccccc2)S(=O)(=O)c2ccc([N+](=O)[O-])cc2[N+](=O)[O-])Cc2ccccc2)c1` [Compound 41, N-benzyl-N-(3-(N-benzyl-3-nitrophenylsulfonamido)propyl)-2,4-dinitrobenzenesulfon-amide], the “% SO2 (30 min)” value in data set [3] was determined as 99%.

Take `O=[N+]([O-])c1ccc(S(=O)(=O)N(CCCN(Cc2ccccc2)S(=O)(=O)c2ccc([N+](=O)[O-])cc2[N+](=O)[O-])Cc2ccccc2)cc1` [Compound 42, N-benzyl-N-(3-(N-benzyl-4-nitrophenylsulfonamido)propyl)-2,4-dinitrobenzenesulfon-amide]: the “% SO2 (30 min)” value in data set [3] is listed as 98%.

With `CC[C@@H](CO)NCCN[C@@H](CC)CO` [Ethambutol, reference compound], the MIC is 7.63 µM in data set [1] (setting [13]) and 1.56 µg/mL in data set [1] (setting [14]).

On to `NNC(=O)c1ccncc1` [Isoniazide, reference compound], for which the MIC in data set [1] (setting [14]) came out at 0.05 µg/mL; in data set [1] (setting [4]), 0.37 µM; in data set [1] (setting [10]), 0.37 µM; in data set [1] (Table 3, inhibit 99% of bacterial growth, Mtb H37Rv) it was 0.05 µg/mL. Also, the SO2 source result in data set [2] is recorded as “no”.

`NC(=O)c1cnccn1` [Pyrizinamide, reference compound]: the MIC in data set [1] (setting [13]) was 50.8 µM; in data set [1] (setting [14]), 6.25 µg/mL.

For the molecule `O=S([O-])[O-].[Na+].[Na+]` [sodium sulfite, reference compound], in data set [1], the “inhibition of growth of Mtb” value is “inactive against Mtb”.
